This is an account of results in patent US11382912B2, “Controlled-release preparation” (NIPPON SHINYAKU CO., LTD., priority 2017, dated 2022).

Molecules are shown by their SMILES.

The nature of data set [1]: pH of alkaline substance at 0.1 wt % in water. The data set is classed as physicochemical. Particulars: dissolved or dispersed in water at 0.1 wt %. The method, then:
The pH of the alkaline substance was measured according to the following method.
The alkaline substance was dissolved (or dispersed) in water at 0.1 wt %, and the pH of the solution (or the dispersion) was determined using a pH METER HM-30R (manufactured by DKK-TOA Corporation).

For data set [2] the following is noted: known, NPL 1; cited from earlier work.
A further data set concerns the target PGI2 receptor (Homo sapiens, UniProt P43119). Particulars: known, PTL 7 to PTL 12; cited from earlier work.

Chain of PGI2 receptor (P43119 whole entry, species assumed): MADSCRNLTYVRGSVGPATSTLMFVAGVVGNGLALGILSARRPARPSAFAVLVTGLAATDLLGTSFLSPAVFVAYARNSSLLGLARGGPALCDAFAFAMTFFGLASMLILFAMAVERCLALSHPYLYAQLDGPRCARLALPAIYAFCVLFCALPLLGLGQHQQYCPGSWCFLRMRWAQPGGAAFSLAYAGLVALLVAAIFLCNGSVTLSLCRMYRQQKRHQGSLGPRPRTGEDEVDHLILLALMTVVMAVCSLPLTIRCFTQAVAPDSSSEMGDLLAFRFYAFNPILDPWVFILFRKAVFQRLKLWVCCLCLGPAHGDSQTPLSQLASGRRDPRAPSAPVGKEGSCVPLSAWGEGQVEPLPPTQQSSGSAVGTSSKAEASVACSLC

For `O=C([O-])[O-].[Ca+2]` [Calcium carbonate], the pH in data set [1] came to 9.8.
Take `[Ca+2].[OH-].[OH-]` [Calcium hydroxide]: in data set [1], the pH turned out to be 12.2.
As for `CC(C)N(CCCCOCC(=O)NS(C)(=O)=O)c1cnc(-c2ccccc2)c(-c2ccccc2)n1` [Compound A, 2-{4-[N-(5,6-diphenylpyrazin-2-yl)-N-isopropylamino]butyloxy}-N-(methylsulfonyl)acetamide], in data set [2], the Solubility entry is reported as “depend on pH”. The “PGI2 receptor agonistic effect” value on PGI2 receptor is “excellent”.
Molecule `O=C([O-])[O-].[Na+].[Na+]` [Dried sodium carbonate] returned a pH in data set [1] of 11.0.
Still for that read-out and setting: for `[Mg+2].[OH-].[OH-]` [Magnesium hydroxide] the value was 10.3; for `[O]=[Mg]` [Magnesium oxide], 10.7.
The same measure, in the same setting: for `CNC[C@H](O)[C@@H](O)[C@H](O)[C@H](O)CO` [Meglumine] the value was 10.6; for `O=C([O-])[O-].[K+].[K+]` [Potassium carbonate], 10.9.
Turning to `CC(=O)[O-].[Na+]` [Sodium acetate], in data set [1], the pH turned out to be 7.6.
On the same count and under the same terms, under `O=C([O-])O.[Na+]` [Sodium bicarbonate] stands 8.5; under `O=P([O-])([O-])O.[Na+].[Na+]` [Sodium hydrogen phosphate], 9.2; under `O=C([O-])CC(O)(CC(=O)[O-])C(=O)[O-].[Na+].[Na+].[Na+]` [Trisodium citrate], 8.3.
